Assay results: patent US20160113958A1, “MODULATORS OF ADP-DEPENDENT GLUCOKINASE (ADPGK) AND GLYCEROL-3-PHOSPHATE DEHYDROGENASE (GPD2) FOR THERAPY” (DEUTSCHES KREBSFORSCHUNGSZENTRUM STIFTUNG DES ÖFFENTLICHEN …, priority 2011, published 2016)
Read-outs that look alike come from different tables or passages of the source. Values belong to the compound of their own block, whether it stands above or below them.

What was measured:
GPD2 = GPD2 activity in mitochondrial fractions of T cells; format: biochemical, human
Procedure: (§1) Cells were disrupted using a 27×½″ needle in ice-cold ETC buffer and the homogenates were centrifuged at 600×g, 4° C. for 10 min. For preparation of the “high g” mitochondrial (pellet) as well cytosolic (supernatant) fraction the 600×g supernatant was centrifuged at 11.000×g, 4° C. for 20 min. For preparation of the “mitochondria-enriched” fractions, the 600×g supernatant was centrifuged 10 min, 4° C. at 3,500×g (pellet). Subsequently, for preparation of the “ER-enriched fraction” the 3,500×g supernatant was centrifuged at 11.000×g, 4° C. for 20 min. The mouse heart muscle mitochondria were prepared according to the procedure for “mitochondria-enriched” fraction as described (5).
Glycerol-3-phosphate-dehydrogenase (GPD2) activity was measured as cytochrome c reduction in ETC buffer containing 5 mM glycerol 3-phosphate, 2 mM NaCN, and 60 μM cytochrome c.

ADPGK = molecular target: T1, ADPGK (Homo sapiens, UniProt Q9BRR6); test: ADP-dependent glucokinase (ADPGK) activity assay; format: biochemical; settings: for ADPGK activity in mitochondria-enriched membrane fractions ("high g" fractions): human T cells or Jurkat T cells, 1 h stimulation
T1 construct: endogenous in cells; host or cells: in vitro expanded human T cells or Jurkat T cells; "high g" mitochondrial or "ER-enriched" fraction
Procedure: as §1
ADPGK activity was assayed as NADP reduction in ETC buffer containing 1 mM ADP, 1 mM glucose, 0.5 mM NADP, 5 μM diadenosine pentaphosphate, and 0.05 U/ml glucose 6-phosphate dehydrogenase at pH 6.0 and 37° C. or 42° C. Assay was essentially based on the one previously described for the recombinant mouse ADPGK protein (9).

[1] = test system: in vitro expanded T cells; test: Oxygen electrode, mitochondrial respiratory rate; format: cell-based; settings: intact human T cells, soluble anti-CD3 antibody or PMA
Procedure: Mitochondrial respiratory rate was measured according to a previously described protocol (7) using computer-supported high-resolution Oroboros 1 oxygraph system (Paar, Graz, Austria). In vitro expanded T cells (5-10×10^7 cells) were placed in each electrode chamber and activated with soluble anti-CD3 antibody (10 μg/m, cross-linked with GAM, 2 μg/ml) or PMA (10 ng/ml). The experimental set-up was as previously described (8). “Mitochondrial respiratory rate” was calculated by subtracting “Background oxygen consumption rate” (recorded with a reference electrode in a presence of 5 μM oligomycin) from “Total oxygen consumption rate” (as described in (8)).

T cells = test: Glucose uptake (D-[3-3H] glucose); format: cell-based, human; settings: after stimulation with anti-CD3 antibody or PMA
Procedure: Upon treatment, cells (1-2×10^7 cells) were washed and suspended in Krebs-Ringer buffer. Subsequently, cells were incubated with 1 μCi/ml D-[3-^3H] glucose for 10 min at 37° C. Afterwards, cells were washed twice with ice-cold Krebs-Ringer buffer and intracellular D-[3-^3H] glucose was detected using a scintillation counter (LS 6500 Liquid Scintillation Counter Beckman Coulter; Brea, Calif., USA).

[2] = test system: in vitro expanded human T cells; test: Ubiquinol/ubiquinone content determination (HPLC); format: cell-based; settings: PMA (10 ng/ml) 1 h, extracts from snap-frozen activated T cells
Procedure: At least 5×10^7 in vitro expanded human T cells were treated with plate-bound anti-CD3 antibody (30 μg/ml) or PMA (10 ng/ml) for 1 h. Cells were washed, pelleted, snap-frozen in liquid nitrogen and placed on dry ice. Ubiquinol/-on extraction was performed by addition of ice-cold 200 μl hexan: isopropanol (2:1) and subsequent centrifugation (15.000 g) for 5 min at 0° C. Next, 150 μl of the supernatant was immediately injected and separated by RP-HPLC. HPLC separation and identification conditions were based on previously published methods (10, 11). […] Identification was based on UV/VIS-DAD absorption spectra and facilitated by redox response detected with volt-amperometric detector. Quantitation was performed based on UV-VIS chromatograms at wavelengths: 275 nm (ubiquinone) and 289 nm (ubiquinol). Selected qualitative and quantitative results of UV-VIS/DAD analysis were confirmed by HPLC-MS/ESI (Agilent; Santa Clara, Calif., USA).

[3] = test system: in vitro expanded peripheral human T cells; test: Determination of ROS generation (activation-induced oxidative signal, H2DCF-DA, FACS); format: cell-based; settings: for oxidative signal generation (T cell activation-induced mitochondrial ROS) with respiratory chain inhibitors: 15 min pre-treatment, plate-bound anti-CD3 (30 μg/ml) or PMA (10 ng/ml) 1 h (FIG. 9A)
Procedure: (§2) T cell line Jurkat J16-145 cells, J16 sub-clone (2), were cultured in RPMI 1640 (+L-glutamine), 10% foetal calf serum (FCS). Gaussia luciferase NF-κB reporter J16-145 cells were cultured in IMDM, 10% FCS. Freshly isolated (“resting”) or phytohemagglutinin (PHA)-activated and 6-8 days in vitro expanded (“pre-activated”) peripheral human T cells were cultured at initial concentration of 2×10^6 cells/ml in RPMI 1640 (+L-glutamine), 10% FCS. For pre-activation-induced expansion, “resting” T cells were treated with 1 μg/ml PHA for 16 h, washed and subsequently cultured in the presence of 25 U/ml IL-2 for 6-8 days. These cells are referred to as “T cells” in the text, if not stated differently.
(§3) Cells were stained with H2DCF-DA (5 μM) for 30 min. Next, cells were divided and 1 h stimulated with either plate-bound anti-CD3 antibody (30 μg/ml) or PMA (10 ng/ml). Treatment was terminated by ice-cold PBS and ROS generation was determined by FACS analysis (Canto II, Becton Dickinson). ROS generation was quantified as the increase in mean fluorescence intensity (MFI), calculated according to the following formula: increase in MFI (%)=[(MFIstimulated−MFIunstimulated)/MFIunstimulated]×100 (3).

[4] = test system: ETC complexes I, II and III; test: Steady-state activity of ETC enzymatic complexes in digitonin-permeabilized T cells; format: biochemical, human; settings: T cells pre-treated (20 min) with BIM, TCR triggering
Procedure: In vitro expanded T cells (at least 0.5×10^8) were snap-frozen in liquid nitrogen and subsequently incubated on ice in ETC buffer (20 mM Tris-HCl pH 7.4, 250 mM sucrose, 50 mM KCl, 5 mM MgCl2) with 0.015% digitonin for 30 min according to Chretien et al. (4) with minor modifications. Afterwards, cells were washed twice with ice-cold ETC buffer and subjected to assays.
Steady-state activity of ETC enzymatic complexes was determined as described (5, 6) using a computer-tunable spectrophotometer (Spectramax Plus Microplate Reader, Molecular Devices; Sunny Vale, Calif., USA) operating in the dual wavelength mode; samples were analyzed in temperature-controlled 96-well plates in a final volume of 300 μL. The addition of standard respiratory chain inhibitors was used to ascertain the specificity of the enzymatic assays. All enzymatic activities were normalized to protein concentration. For stimulated T cells ETC enzyme activities were measured after snap-freezing and digitonin-permeabilization (as described previously). To study electron flow from complex I or complex II to complex III digitonin-permeabilized cells or mitochondrial fractions were incubated with NADH or succinate and the reduction of cytochrome c in the presence of NaCN was measured.

enolase (ENO) = test: Enolase (ENO) reverse reaction activity; format: biochemical, human
Procedure: Enolase (ENO) forward reaction was measured as NADH oxidation in ETC buffer containing 1 mM 2-phosphoglycerate, 1 mM ADP, 0.5 mM NADH, 2 U/ml LDH, 2 U/ml PK. The reverse reaction was assayed in ETC buffer containing 1 mM phosphoenolpyruvate, 1 mM ATP, 0.5 mM NADH, 2 U/ml LDH, 2 U/ml PK.

[5] = test system: mitochondria-associated HK activity; test: Respiration-coupled hexokinase (HK)-like activity in T cell mitochondria ("high g" fraction); format: biochemical, human
[6] = test system: in vitro expanded peripheral human T cells; settings: previous work (ref. 3); cited from earlier work
mitochondrial AK = test: Adenylate kinase (AK) activity assay; format: biochemical; settings: 5 μM
Procedure: AK activity was assayed as NADP reduction in ETC buffer containing 1 mM ADP, 1 mM glucose, 0.5 mM NADP, 1 U/mL HK and 0.05 U/ml glucose 6-phosphate dehydrogenase at pH 7.5 and 37° C.

Jurkat T cells = test: Determination of ROS generation (activation-induced oxidative signal, H2DCF-DA, FACS); format: cell-based, human; settings: 30 min pre-incubation with DOG/pyruvate, compared to equimolar glucose (Glc)/pyruvate
Procedure: as §2
as §3, with “(3). […]” for “(3).”

T1 sequence (Q9BRR6 23-497): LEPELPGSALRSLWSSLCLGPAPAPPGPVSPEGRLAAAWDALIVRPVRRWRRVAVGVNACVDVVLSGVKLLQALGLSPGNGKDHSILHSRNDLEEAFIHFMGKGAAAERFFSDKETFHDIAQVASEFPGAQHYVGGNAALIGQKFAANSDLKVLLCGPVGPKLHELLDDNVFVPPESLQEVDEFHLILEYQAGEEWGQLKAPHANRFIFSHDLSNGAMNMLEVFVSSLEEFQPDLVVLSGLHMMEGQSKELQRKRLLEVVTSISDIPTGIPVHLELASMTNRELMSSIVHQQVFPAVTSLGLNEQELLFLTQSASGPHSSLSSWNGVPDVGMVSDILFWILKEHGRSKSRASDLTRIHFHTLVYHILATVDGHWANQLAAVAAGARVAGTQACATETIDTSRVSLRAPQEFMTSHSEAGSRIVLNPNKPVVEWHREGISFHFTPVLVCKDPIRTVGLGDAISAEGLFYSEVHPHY

Compound: CCCCCCCCCCCCCC(=O)O[C@@H]1[C@@H](C)[C@@]2(O)[C@@H](C=C(CO)C[C@]3(O)C(=O)C(C)=C[C@@H]23)[C@@H]2C(C)(C)[C@]12OC(C)=O [PMA, phorbol 12-myristate 13-acetate]
GPD2 activity (GPD2; mitochondria-enriched membrane fractions of pre-activated human T cells, PMA (10 ng/ml) 1 h): moderately up-regulated | ADPGK activity in mitochondria-enriched membrane fractions ("high g" fractions) (ADPGK): Comparable up-regulation | mitochondrial oxygen consumption [1]: significant inhibition | cellular uptake of radioactively labeled glucose (T cells): rapidly rose | rise in the content of ubiquinol over ubiquinone [2]: 57%

T cell activation-induced enhancement of the ADPGK-like enzymatic activity (ADPGK; "high g" fractions, BIM pre-treatment (20 min)): completely abolished
Compound: CN(C)CCCn1cc(C2=C(c3c[nH]c4ccccc34)C(=O)NC2=O)c2ccccc21 [BIM, bis-indolyl-maleimidate I]
TCR-induced mitochondrial ROS generation ([3]; 20 min pre-incubation, 1 h plate-bound anti-CD3 antibody (30 μg/ml)): inhibitor | activation-induced changes of enzymatic activities of complexes I, II and III [4]: significantly blocked | TCR-induced GPD2 activation (GPD2; mitochondrial fractions of activated T cells, BIM pre-treatment): significantly blocked

Compound: C=C(C)[C@H]1Cc2c(ccc3c2O[C@@H]2COc4cc(OC)c(OC)cc4[C@@H]2C3=O)O1 [rotenone]
oxidative signal generation (T cell activation-induced mitochondrial ROS) with respiratory chain inhibitors [3]: inhibition

Compound: [N-]=[N+]=[N-].[Na+] [NaN3]
oxidative signal generation (T cell activation-induced mitochondrial ROS) with respiratory chain inhibitors [3]: not blocked

Compound: NaVO3
TCR-induced increase of reverse ENO activity (enolase (ENO)): abolished | reverse ENO activity (enolase (ENO)): reduced the activity but did not block it

Compound: [F-].[Na+] [NaF]
reverse ENO activity (enolase (ENO); T cells): blocked

Compound: N#CC(C#N)=NNc1cccc(Cl)c1 [CCCP]
sensitivity of the enhanced HK-like enzymatic activity ([5]; CCCP (0.125 μM), NaCN (10 mM)): insensitivity

Compound: CO/C(=C/C(N)=O)[C@H](C)[C@H](/C=C/c1csc(-c2csc([C@@H](C)/C=C/C=C/C(C)C)n2)n1)OC [myxothiazol]
oxidative signal generation (T cell activation-induced mitochondrial ROS) with respiratory chain inhibitors [3]: not

Compound: CN(C)C(=N)N=C(N)N [metformin]
oxidative signal generation (T cell activation-induced mitochondrial ROS) with respiratory chain inhibitors [3]: inhibition | generation of the oxidative signal [6]: blocked

Compound: diadenosine pentaphosphate [Ap5A]
inhibition of TCR-induced HK-like activity ([5]; 5 μM, presence of ADP and succinate): up to 40% | activation-induced rise in HK-like activity ([5]; Ap5A 5 μM): unaffected | inhibition of mitochondrial AK (mitochondrial AK): 80-90%

Compound: O=C(CC(=O)C(F)(F)F)c1cccs1 [TTFA]
oxidative signal generation (T cell activation-induced mitochondrial ROS) with respiratory chain inhibitors [3]: moderate inhibition

Compound: antimycin
oxidative signal generation (T cell activation-induced mitochondrial ROS) with respiratory chain inhibitors [3]: increased

Compound: CC[C@H]1/C=C/C=C/C[C@@H](C)[C@H](O)[C@@](C)(O)C(=O)[C@@H](C)[C@H](O)[C@@H](C)C(=O)[C@@H](C)[C@H](O)[C@@H](C)/C=C/C(=O)O[C@@H]2[C@H](C)[C@H](CC1)O[C@]1(CC[C@H](C)[C@H](C[C@@H](C)O)O1)[C@H]2C [oligomycin]
oxidative signal generation (T cell activation-induced mitochondrial ROS) with respiratory chain inhibitors [3]: not blocked

Compound: O=CC[C@@H](O)[C@H](O)[C@H](O)CO [DOG, 2-deoxy-glucose]
activation-induced ROS ([3]; expanded human T cells, 30 min pre-incubation with DOG/pyruvate, compared to equimolar glucose (Glc)/pyruvate): lower amounts | activation-induced ROS (Jurkat T cells): lower amounts

ADPGK activity in mitochondria-enriched membrane fractions ("high g" fractions) (ADPGK): enhanced
Compound: anti-CD3 antibody: Monoclonal mouse antibody (OKT3) against human CD3, agonistic, used for TCR triggering
mitochondrial oxygen consumption [1]: significant inhibition | cellular uptake of radioactively labeled glucose (T cells): rapidly rose
